According to patent US20130202681A1 (priority 2012, published 2013):
Like-named read-outs stand apart in the source and are kept apart here.

What was measured:
[1] = tested on: Mycobacterium tuberculosis; details: 10 millimolar
[2] = liver, water control = 0%
[3] = in vivo; cited from earlier work
[4] = mouse, in vivo; cited from earlier work

Row | Structure (SMILES) | CFU/ml reduced to [1] | toxin removal ([2]; intravenous) | toxin removal ([2]; oral) | absorption after oral ingestion [3] | decrease of incidence or size of hepatic nodules or tumors [4]
1 | CC(=O)N[C@@H](CS)C(=O)O [NAC, N-acetyl cysteine] | 8,000 CFU/ml |  |  |  | 
2 | N[C@@H](CCC(=O)N[C@@H](CS)C(=O)NCC(=O)O)C(=O)O [Plain glutathione, glutathione] |  | 70% | 10% | not absorbed | no benefit
